Data: ChEMBL document CHEMBL4396919, “Permeability of Cyclic Peptide Macrocycles and Cyclotides and Their Potential as Therapeutics” (ACS Med Chem Lett, 2019)
*1 amine or outer side, *2 acyl side, *3 side chain or, on linkers, in order; H or OH if unused. Where a SMILES comes first, the peptide text is derived from it. [ ]: non-standard residue; d: D form. Ile(ψThz) = CC[C@H](C)[C@H](N[*:1])c1nc(C(=O)[*:2])cs1; NMeF = CN[C@@H](Cc1ccccc1)C(=O)O; Tle = CC(C)(C)[C@H](N)C(=O)O

Columns and labels:
in vivo = conditions: Wistar, rat, po, 10 mg/kg
in vitro = conditions: dog, MDCK
Description: Permeability in RRCK cells

| bioavailability at 8 h (in vivo) | Papp (in vitro) | Compound |
| --- | --- | --- |
| 7% | 0.7 ×10⁻⁶ cm/s | CC[C@H](C)[C@@H]1NC(=O)[C@@H]2CCCN2C(=O)[C@H](Cc2ccccc2)NC(=O)[C@H](C)NC(=O)c2csc(n2)[C@H]([C@@H](C)CC)NC(=O)[C@@H]2CCCN2C1=O (cyclo(AFPIP[Ile(ψThz)])) |
| 21% | – | CC[C@H](C)[C@@H]1NC(=O)[C@@H]2CCCN2C(=O)[C@H](Cc2ccccc2)N(C)C(=O)[C@H](C(C)(C)C)NC(=O)c2csc(n2)[C@H]([C@@H](C)CC)NC(=O)[C@@H]2CCCN2C1=O (cyclo(IP[Ile(ψThz)][Tle][NMeF]P)) |
